Results as given in US8895754B2, “Process to make UV radiation absorbing 2-phenyl-1,2,3,-benzotriazoles” (DSM IP Assets B.V., priority 2010, dated 2014).

Experiment: Determination of the solubility in cosmetic solvents
Assay type: physicochemical
Details: saturated solution stirred 7 days at room temperature, concentration by HPLC; for solubility Finsolv TN: C12-15 Alkylbenzoate; for solubility Myritol 318: Capric/Caprylic Triglyceride
Experimental: 1.5 g of a cosmetic solvent (Capric/Caprylic Triglyceride (Mygliol 318) and C12-15 Alkylbenzoate (Finsolv TN)) is saturated with the respective Benzotriazol-derivative by adding 0.2 g portions while stirring at room temperature. The saturated solution is stirred for 7 days at room temperature. 1 ml of the supernatant is centrifuged and filtered in order to obtain a clear solution. The concentration of the Benzotriazol-derivative is determined by means of HPLC.

solubility Finsolv TN [%] | solubility Myritol 318 [%] | SMILES
42 | 24 | CCCCC(CC)C(=O)OCc1cc(C)cc(-n2nc3ccccc3n2)c1O (stereo not shown) [Example 7, 2-Ethyl-hexanoic Acid 3-(2H-benzotriazol-2-yl)-2-hydroxy-5-methyl-benzyl Ester]
8 | 6 | Cc1cc(COC(=O)CC(C)C)c(O)c(-n2nc3ccccc3n2)c1 [Example 8, 3-Methyl-butyric Acid 3-(2H-benzotriazol-2-yl)-2-hydroxy-5-methyl-benzyl Ester]
0.02 | 0.01 | Cc1cc(COCc2cc(C)cc(-n3nc4ccccc4n3)c2O)c(O)c(-n2nc3ccccc3n2)c1 [Example 9, 3,3′-Bis(2H-benzotriazol-2-yl)-2,2′-dihydroxy-5,5′-dimethylbenzyl Ether]

SMILES | solubility Finsolv TN [%] | solubility Myritol 318 [%]
Cc1cc(COCCC(C)C)c(O)c(-n2nc3ccccc3n2)c1 [Example 4, 2-(2H-Benzotriazol-2-yl)-6-(3-methyl-butoxymethyl)-4-methyl-phenol] | 37 | 36
Cc1cc(COCCC(C)C)c(O)c(-n2nc3ccc(Cl)cc3n2)c1 [Example 6, 2-(5-Chloro-2H-benzotriazol-2-yl)-4-methyl-6-(3-methyl-butoxymethyl)-phenol] | 19 | 12
